Laboratory results published in patent publication US20260216141A1, “NECROSIS INHIBITOR” (LINKGEVITY LIMITED, priority 2023, published 2026).

Test system: C. elegans
Assay: C. elegans survival after cold, heat, oxidative and toxin stress
Type: in vivo, Caenorhabditis elegans
Settings: EGTA 2500 μM in liposomes, 3 hrs prior to stress or 3 hrs post stress
Experimental: C. elegans was maintained on nematode growth medium (NGM) agar plates seeded with Escherichia coli OP50, using standard culture methodologies (S. Brenner, 1974). A C. elegans (N2H) hermaphrodite stock was used as wild-type. Day 1 hermaphrodites were used in experiments and all maintenance and trials were conducted at 20° C. unless otherwise stated.
Per trial, 100 animals were placed in 1.5 ml Eppendorf tubes ([…]) containing 100 μl M9 buffer, and then transferred to a −80° C. incubator for 1.5 min. Following the stress, animals were transferred to a 20° C. incubator and maintained as usual on OP50 NGM plates. • Heat stress
Per trial, 100 animals were placed in a 37° C. incubator for 4.5 hrs on NGM plates. Following the stress, animals were transferred to a 20° C. incubator and maintained as usual on OP50 NGM plates. • Oxidative stress
Per trial, 100 animals were transferred into 1.5 ml Eppendorf tubes (20 animals per tube) containing 300 μL of 2M hydrogen peroxide for 5 min. Following the stress, animals were transferred to a 20° C. incubator and maintained as usual on OP50 NGM plates. • Toxin stress
Per trial, 100 animals were transferred into 1.5 ml Eppendorf tubes (20 animals per tube) containing 300 μL of 1.3% (v/v) tert-butylhydroperoxide (tBOOH) for 5 min. […]
Next the model Caenorhabditis elegans was used and animal survival following stress was scored. […]

With O=C(O)CN(CCOCCOCCN(CC(=O)O)CC(=O)O)CC(=O)O [EGTA, ethylene glycol-bis(β-aminoethyl ether)-N,N,N′,N′-tetraacetic acid] the “C. elegans death / survival following stress” value was “death is prevented”.
